Entries after “also recorded” stand apart in the source; their conditions may differ. Structures can show the parent of a compound that is named as a salt.
Legend:
[1] = tested on: p53 and Bcl-xL complex; experiment: Co-immunoprecipitation of p53 with Bcl-xL in brain mitochondria; type: in vivo, mouse; details: after ADR, vs saline control; hydrochloride
Protocol: Isolated mitochondrial protein (500 μg) was resuspended in 500 μL RIPA buffer (9.1 mM Na2HPO4, 1.7 mM NaH2PO4, 150 mM NaCl, 0.5% sodium deoxycholate, 1% v/v Nonidet P40, 0.1% sodium dodecyl sulfate, pH 7.2). Protease inhibitors (0.1 mg PMSF and 1 μg aprotinin per mL RIPA) were added at the time of use followed by incubation with 5 μg/mL of mouse p53 antibody (Ab-11, Oncogene) at 4° C. overnight. Protein A/G-Agarose (50 μL) was added to the reaction mixture with the antibody. Immunocomplexes were collected by centrifugation at 1,000×g at 4° C. for 5 minutes, then washed four times with RIPA buffer. Immunoprecipitated samples were recovered by resuspending in 2×sample loading buffer, and p53 or Bcl-xL (Santa Cruz Biotechnology, Santa Cruz, Calif.) proteins were detected by Western blot. Immunoreactivity was evaluated on immunoblots by densitrometric analysis using a Bio-RAD densitometer (Bio-RAD Laboratory, Inc, Hercules, Calif., USA).

[2] = tested on: 3-nitrotyrosine; experiment: Nitrotyrosine-adducted proteins in isolated brain mitochondria (slot blot); type: in vivo, mouse; details: 3 hours after ADR 20 mg/kg, hydrochloride
Protocol: 3-Nitrotyrosine levels, a peroxynitrite reaction product marker, were determined as described previously (Lauderback et al. 2001). Briefly, 5 μg isolated mitochondrial proteins were incubated with Laemmli sample buffer (0.125 M Trisma base, pH 6.8, 4% SDS, 20% glycerol) for 20 minutes, and then 250 ng protein were blotted onto the nitrocellulose membrane using a slot-blot apparatus. The membrane was rinsed with TBST buffer, blocked by incubation in the presence of 5% BSA, followed by incubation with rabbit polyclonal anti-nitrotyrosine antibody as primary antibody for 1 h. The membranes were washed with TBST buffer and further incubated with goat anti-rabbit horseradish peroxidase-conjugated secondary antibody for 1 h. After incubation with secondary antibody, the membrane was washed twice with TBST and once in TBS (TBS without 0.05% Tween-20). Immunoreactivities of the protein bands were detected by ECL (Amersham Phamacia Biotech) as described by the manufacturer. Blots were scanned with Adobe Photoshop and quantified by the densitometry method (Bio-Rad).

[3] = tested on: TNF α; experiment: TNF α levels in serum (mouse TNF-α ELISA); type: in vivo
Protocol: Mice were treated with 20 mg/kg ADR or saline as control. Blood samples were collected at 1, 3, 6, 9, 24 hours and allowed to clot at 2-8° C. overnight. Serum samples were used to measure TNF α levels, according to the mouse enzyme-linked immunosorbent assay following the manufacturers' instructions (mouse TNF-α/TNFSF1A immunoassay, R&D Systems, Minneapolis, MN). The TNF α concentration in the sample was calculated from a recombinant mouse TNF α standard curve. The minimum detection limit is typically less than 5.1 pg/mL.
8-week-old male B6C3 mice (25-30 g) were kept under standard conditions. Mice were injected with a single intraperitoneal (i.p.) treatment with adriamycin (doxorubicin hydrochloride, 20 mg/kg), TNF-α, anti-mouse TNF-antibody (40 ng/kg), dipropylenetriamine NONOate (DPTA NONOate, […]), lipopolysaccharide (LPS 1 mg/kg), NG-nitro-L-arginine-methyl esther (L-NAME, 10 mg/kg) or pre-immune IgG.
Mice were treated with 20 mg/kg ADR, TNF-α, anti-mouse TNF-antibody, dipropylenetriamine NONOate, lipopolysaccharide, NG-nitro-L-arginine-methyl esther or pre-immune IgG, as well as saline as control. Blood samples were collected at 3 hours after ADR treatment and allowed to clot at 2-8° C. overnight. Serum samples were used to measure TNF levels, according to the mouse enzyme-linked immunosorbent assay following the manufacturers' instructions (mouse TNF-α/TNFSF1A immunoassay, R&D Systems, Minneapolis, Minn.). The TNF concentration in the sample was calculated from a recombinant mouse TNF standard curve. The minimum detection limit is typically less than 5.1 pg/mL.

[4] = tested on: mitochondrial respiration complex I; experiment: Brain mitochondrial respiration, complex I (pyruvate + malate), respiration control ratio; details: 3 hours after treatment, hydrochloride
Protocol: Mice were perfused via cardiac puncture with cold mitochondrial isolation buffer, the brain promptly removed, the cerebellum dissected away, and mitochondria immediately isolated from the freshly brain by a modification of the method described by Mattiazzi et al. (2002). Brain mitochondria were isolated in cold mitochondrial isolation buffer, containing 0.07 M sucrose, 0.22 M mannitol, 20 mM HEPES, 1 mM EGTA, and 1% bovine serum albumin, pH 7.2. Tissues were homogenized with a Dounce homogenizer and centrifuged at 1,500×g at 4° C. for 5 minutes before transferring the supernatant. The pellets were resuspended and centrifuged at 1,500×g at 4° C. for 5 minutes. The supernatants were combined and centrifuged at 13,500×g at 4° C. for 10 minutes. Mitochondrial pellets were washed twice and finally resuspended in 50-100 μL cold isolation buffer. Protein concentration of isolated mitochondria was determined by the Bradford assay (Bradford, 1976). The final protein concentration was 20-40 mg/ml.
Mitochondrial respiration was determined using Clark-type polarographic oxygen sensors (Hansatech Instruments, Kings Lynn, Norfolk, UK) to measure the rate of oxygen consumption. Freshly isolated mitochondria were suspended in respiration buffer at a concentration of 0.5 mg mitochondrial protein per mL of respiration buffer, which consists of 0.25 M sucrose, 50 mM HEPES, 1 mM EGTA, 10 mM KH2PO4, and 2 mM MgCl2, pH 7.4. Oxygen consumption was measured with either pyruvate (10 mM) plus malate (10 mM) or succinate (10 mM) as substrates for respiration from complex I or complex II in the absence of exogenous ADP (state II) and after addition of 300 mM ADP (state III respiration). Rotenone (5 μM) was added to the reaction to inhibit respiration from complex I when succinate was used as the substrate. […] FCCP (1 μM), an uncoupling agent, was added as a control of respiration. Respiration control ratios (RCR) were calculated as the ratios of state III and state II respiration as described previously by Estabrook (1967). The unit for state II rate and state III rate is nmole/min/mg protein.
Mice were perfused via cardiac puncture with cold mitochondrial isolation buffer, the brain promptly removed, the cerebellum dissected away, and mitochondria immediately isolated from the freshly brain by a modification of the method described by Mattiazzi et al. (2002). Brain mitochondria were isolated in cold mitochondrial isolation buffer, containing 0.07 M sucrose, 0.22 M mannitol, 20 mM HEPES, 1 mM EGTA, and 1% bovine serum albumin, pH 7.2. Tissues were homogenized with a Dounce homogenizer and centrifuged at 1,500×g at 4° C. for 3 minutes before transferring the supernatant fluid. The pellets were resuspended and centrifuged at 1,500×g at 4° C. for 3 minutes. The supernatant fluids were combined and centrifuged at 1,500×g at 4° C. for 3 minutes. These supernatant fluids were then centrifuged at 13,500×g at 4° C. for 10 minutes. Mitochondrial pellets were washed twice and finally resuspended in 50-100 μL cold isolation buffer. Protein concentration of isolated mitochondria was determined by the Bradford assay (Bradford, 1976).
Mitochondrial respiration was determined using Clark-type polarographic oxygen sensors (Hansatech Instruments, UK) to measure the rate of oxygen consumption. Freshly-isolated mitochondria were suspended in respiration buffer at a concentration of 0.5 mg mitochondrial protein/mL respiration buffer, which consisted of 0.25 M sucrose, 50 mM HEPES, 1 mM EGTA, 10 mM KH2PO4, 2 mM MgCl2 and 0.2% BSA, pH 7.4. Oxygen consumption was measured with either pyruvate (10 mM) or pyruvate plus malate (10 mM) as substrates for respiration from complex I, in the absence of exogenous ADP (state II), and after addition of 300 mM ADP (state III respiration). […] FCCP (1 μM), an uncoupling agent, was added as a control respiration. Respiration control ratios (RCR) were calculated as the ratios of state III and state II respiration.

[5] = Localization of ADR in brain tissue (inverted fluorescence microscope); type: in vivo; details: mouse brain 3 hours after 20 mg/kg ADR i.p.; hydrochloride
Protocol: Eight-week-old male B6C3 mice (25-30 g) were kept under standard conditions. The mice were injected in a single intraperitoneal (i.p.) dose of 20 mg/kg adriamycin (Doxorubicin hydrochloride, […] Sicor Phamaceuticals, Inc., Irvine, Calif.), or the same volume of saline as control for 3 hours. […] Controls consisted of anti-TNF α antibody alone, or saline in the same total volume. All results were obtained from at least three separate experiments. Mice were euthanized by the i.p. injection of 65 mg/kg of nembutal (Sodium pentobarbital, Abbott Laboratories, North Chicago, Ill.), and were perfused via cardiac puncture initially with 0.1 M phosphate buffered saline (PBS), pH 7.4, and subsequent fixation with 4% paraformaldehyde. […] The sections were prepared for immunohistochemistry and detection of ADR. ADR in brain tissue slices was directly visualized using an inverted fluorescence microscope, FIG. 1 (excitation filter 550 nm, and barrier filter 590 nm). Photomicrographs were taken with an Olympus MagnaFire digital camera (Olympus, America, Melville, N.Y.).

[6] = tested on: caspase 3; experiment: Caspase 3 activity in brain tissues; type: in vivo, mouse; details: 3 and 72 hours after 20 mg/kg ADR; hydrochloride
[7] = tested on: mitochondrial respiration complex II; experiment: Brain mitochondrial respiration, complex II (succinate); type: in vivo, mouse; details: succinate as substrate, after ADR
Protocol: Mice were perfused via cardiac puncture with cold mitochondrial isolation buffer, the brain promptly removed, the cerebellum dissected away, and mitochondria immediately isolated from the freshly brain by a modification of the method described by Mattiazzi et al. (2002). Brain mitochondria were isolated in cold mitochondrial isolation buffer, containing 0.07 M sucrose, 0.22 M mannitol, 20 mM HEPES, 1 mM EGTA, and 1% bovine serum albumin, pH 7.2. Tissues were homogenized with a Dounce homogenizer and centrifuged at 1,500×g at 4° C. for 5 minutes before transferring the supernatant. The pellets were resuspended and centrifuged at 1,500×g at 4° C. for 5 minutes. […] Protein concentration of isolated mitochondria was determined by the Bradford assay (Bradford, 1976). […]
Mitochondrial respiration was determined using Clark-type polarographic oxygen sensors (Hansatech Instruments, Kings Lynn, Norfolk, UK) to measure the rate of oxygen consumption. […] Oxygen consumption was measured with either pyruvate (10 mM) plus malate (10 mM) or succinate (10 mM) as substrates for respiration from complex I or complex II in the absence of exogenous ADP (state II) and after addition of 300 mM ADP (state III respiration). […] Respiration control ratios (RCR) were calculated as the ratios of state III and state II respiration as described previously by Estabrook (1967). […]

Tyrosine-nitrated proteins in brain mitochondria ([2]; iNOSKO mice): no difference with controls
Brain mitochondrial respiration complex II [7]: no effect
Compound: COc1cccc2c1C(=O)c1c(O)c3c(c(O)c1C2=O)C[C@@](O)(C(=O)CO)C[C@@H]3O[C@H]1C[C@H](N)[C@H](O)[C@H](C)O1 [ADR, Doxorubicin hydrochloride]
p53 and Bcl-xL complex in brain mitochondria (Bcl-xL bands after anti-p53 immunoprecipitation) [1]: specific increases of p53 and Bcl-xL; also recorded: increased at 3 hours
Tyrosine-nitrated proteins in brain mitochondria ([2]; wild-type mice): significantly increased protein nitration
Time course of increased serum TNF α ([3]; 20 mg/kg ADR, blood at 1, 3, 6, 9, 24 hours, hydrochloride): detectable as early as 1 hour and were sustained throughout a 24 hour period; also recorded: increased at the earliest time point examined
TNF-α level in serum (circulating TNF-α) ([3]; iNOSKO mice, 3 hours after treatment): significantly elevated
TNF α level in serum (circulating TNF α) ([3]; wild-type mice, 3 hours after single i.p. treatment, vs saline control, hydrochloride): significantly higher; also recorded: significantly elevated
Brain mitochondrial respiration complex I (RCR) ([4]; iNOSKO mice): no effect; also recorded: not in iNOSKO mice
Brain mitochondrial respiration complex I (RCR, state III / state II) ([4]; wild-type mice, vs saline control): significantly decreased; also recorded: decline
ADR orange-red fluorescence in areas outside the blood brain barrier (choroid plexus) [5]: observed in several areas outside the blood brain barrier, including the choroid plexus; also recorded: apparent in the choroid plexus
ADR orange-red fluorescence in cortex and hippocampus [5]: not observed in cortex and hippocampus; also recorded: not detected
Caspase 3 activity in brain tissues [6]: significantly increased; also recorded: increased at 72 hours compared with 3 hours

From patent US20080131432A1, “Method of treating the chemotoxic effects of chemotherapeutic drugs on brain tissue” (University of Kentucky Research Foundation, priority 2005, published 2008)
